According to patent US20210386367A1, “DEVICES AND SYSTEMS FOR GASTROINTESTINAL MICROBIOME DETECTION AND MANIPULATION” (Progenity, Inc., priority 2018, published 2021):
Values after ≈ are worked out from the molar mass of the structure shown. Values joined by “and” are separate entries in the source; they are usually repeats but may differ in a detail not shown here. Equal values may be shown once. Read-outs that look alike come from different tables or passages of the source.

Assays:
[1] = tested on: Enterococcus faecalis clinical isolates; assay: MIC distribution against clinical isolates; assay type: cell-based; conditions: 50 E. faecalis isolates
From the text: (§1) As used herein, “minimum inhibitory concentration” or “MIC” refers to the lowest concentration of an antimicrobial agent, for example, an antimicrobial agent as described herein, required to inhibit the growth of an organism.
(§2) Many susceptibility testing methods are known in the art and can be used as described herein (see, e.g., Jorgensen and Ferraro (2009) Clinical Infectious Diseases 49:1749-1755; and Maurer et al. (2017) Infectious Disease Reports 9:6839; the entire contents of each of the foregoing are incorporated herein by reference). For example, antimicrobial susceptibility can be determined using conventional culture based methods such as the broth or agar dilution test. In these dilution tests, the bacterial isolate of interest is inoculated onto different media that include serial dilutions of an antimicrobial agent, and incubated under appropriate conditions (e.g., overnight at 37° C.) to allow for growth to occur. Following the incubation period, the media is examined to determine bacterial growth. The lowest concentration of antibiotic that prevents growth represents the minimal inhibitory concentration (MIC). Broth dilution tests can be miniaturized and mechanized allowing for reproducibility and high throughput.

[2] = tested on: Staphylococcus aureus clinical isolates; assay: MIC distribution against clinical isolates; assay type: cell-based
From the text: as §1, §2

Klebsiella spp. = assay: Broth microdilution MIC, 50 clinical isolates (20 K. oxytoca, 30 K. pneumoniae); assay type: cell-based
Description: (§3) Minimal inhibitory concentration (MIC) values were determined by broth microdilution or agar dilution in accordance with guidelines from the Clinical and Laboratory Standards Institute (CLSI; (1) “Methods for Dilution Antimicrobial Susceptibility Tests for Bacteria That Grow Aerobically; Approved Standard; 11th ed.” CLSI standard M07-A11, 2018; (2) “Performance Standards for Antimicrobial Susceptibility Testing; Twenty-Eighth Informational Supplement,” CLSI document M100-S28, 2018; and (3) “Methods for Antimicrobial Susceptibility Testing of Anaerobic Bacteria; Approved Standard—Eighth Edition,” CLSI document M11-A8, 2012).
(§4) Tested aerobically by broth microdilution: • Escherichia coli, n=50 • Klebsiella spp., n=50 • Pseudomonas aeruginosa, n=50 • Streptococcus spp., n=50 • Staphylococcus aureus, n=50 • Enterococcus faecalis, n=50 • Enterobacter aerogenes, n=50 • Proteus mirabilis, n=50
(§5) Broth microdilution testing of aerobic bacteria was conducted in cation-adjusted Mueller Hinton broth (MHBII). For testing streptococci, lysed horse blood (LHB) was added to MHBII broth at a final concentration of 3%. Where LHB was used, it was added after filtering.
(§6) Broth microdilution susceptibility testing in 96-well microplates was conducted in accordance with CLSI methods (1) and (2). Automated liquid handlers were used to conduct serial dilutions and liquid transfers, including the Multidrop 384 (Labsystems, Helsinki, Finland), Biomek 2000, and the Biomek FX (Beckman Coulter, Fullerton, Calif.). All wells in columns 2 through 12 of a standard 96-well microdilution plate (Costar 3795) were filled with 150 μL of the appropriate diluent. Then, 300 μL of the test agents were added to the wells of column 1 of the plates at 100× the highest final concentration to be tested. Serial two-fold dilutions were made across the rows through column 11 using the Biomek 2000. The wells of column 12 contained no drug and served as the growth control wells. This plate served as the “mother plate” from which MIC assay plates or “daughter plates” were made.
(§7) The daughter plates were loaded with 190 μL per well of the appropriate medium using the Multidrop 384. The daughter plates were created using the Biomek FX which transferred 2 μL of drug solution from each well of a mother plate to each corresponding well of the daughter plate in a single step. A standardized inoculum of each test organism was prepared per CLSI methods (1) to equal a 0.5 McFarland standard, followed by a dilution of 1:20 for aerobes and 1:10 for anaerobes. The plates were then inoculated with 10 μL of the diluted inoculum using the Biomek 2000 from low to high drug concentration, resulting in a final concentration of approximately 5×10^5 CFU/mL per well. An un-inoculated plate was incubated in parallel for each medium for the purpose of assessing solubility of the drug in the test media.
(§8) Inoculated plates were stacked 3 or 4 high, covered with a sterile lid on the top plate, placed into boxes with CO2 planchets (streptococci) or plastic bags (all other isolates). Plates were incubated at 35° C. for 16-24 hr in ambient air for aerobes or for 42-48 hr in the anaerobic environment of the Bactron II anaerobe chamber (Sheldon Manufacturing Co.; Cornelius, Oreg.). Following incubation, the microplates were removed from the incubator and viewed from the bottom using a plate viewer. The MIC values were read and recorded as the lowest concentration of drug that inhibited visible growth of the organism as per CLSI methods (1) and (2).

Streptococcus spp. = assay: Broth microdilution MIC, 54 clinical isolates; assay type: cell-based; conditions: for Mode: modal MIC
Description: as §3, §4, §5, §6, §7, §8

B. vulgatus ATCC 8482 = assay: Time-kill assay; assay type: cell-based, Bacteroides vulgatus; conditions: 2×, 4×, 8× MIC; 2, 6, 24, 48 hr
SIBO Bacteria = conditions: cited from earlier work
[3] = MIC 32 μg/mL, 50 S. aureus isolates
[4] = 54 Streptococcus spp. clinical isolates
[5] = MIC 0.5 μg/mL, 50 S. aureus isolates
[6] = MIC 1 μg/mL, 50 S. aureus isolates
[7] = MIC 2 μg/mL, 50 S. aureus isolates
[8] = MIC 4 μg/mL, 50 S. aureus isolates
[9] = MIC 8 μg/mL, 50 S. aureus isolates
[10] = MIC 16 μg/mL, 50 S. aureus isolates
[11] = MIC 64 μg/mL, 50 S. aureus isolates
[12] = MIC >64 μg/mL, 50 S. aureus isolates

CO[C@H]1/C=C/O[C@@]2(C)Oc3c(C)c(O)c4c(O)c(c5c(nc6cc(C)ccn65)c4c3C2=O)NC(=O)/C(C)=C\C=C\[C@H](C)[C@H](O)[C@@H](C)[C@@H](O)[C@@H](C)[C@H](OC(C)=O)[C@@H]1C [rifaximin]
Number of test isolates at MIC ([1]; MIC 0.5 μg/mL): 5 | Cumulative percentage of isolates inhibited at MIC ([2]; MIC 0.008 μg/mL, 50 S. aureus isolates): 8.0% | Cumulative percentage of isolates inhibited at MIC [2, 3]: 100.0% | Number of test isolates at MIC [2, 3]: 1 | Cumulative percentage of isolates inhibited at MIC ([2]; listed as RFX): 70.0% and 78.0% and 94.0% and 98.0% | MIC50 (Klebsiella spp.): 32 µg/mL (≈ 40.7 µM) | MIC90 (Klebsiella spp.): > 64 µg/mL | Mode (Klebsiella spp.): 16 µg/mL | Cumulative percentage of isolates at MIC (Klebsiella spp.; 8 μg/mL): 10.0% | Number of test isolates at MIC (Klebsiella spp.; 8 μg/mL): 5 | Cumulative percentage of isolates at MIC (Klebsiella spp.; 16 μg/mL): 46.0% | Number of test isolates at MIC (Klebsiella spp.; 16 μg/mL): 18 | Cumulative percentage of isolates at MIC (Klebsiella spp.; 32 μg/mL): 64.0% | Number of test isolates at MIC (Klebsiella spp.; 32 μg/mL): 9 | Cumulative percentage of isolates at MIC (Klebsiella spp.; 64 μg/mL): 80.0% | Number of test isolates at MIC (Klebsiella spp.; 64 μg/mL): 8 | Cumulative percentage of isolates at MIC (Klebsiella spp.; >64 μg/mL): 100.0% | Number of test isolates at MIC (Klebsiella spp.; >64 μg/mL): 10 | MIC90 (Klebsiella spp.; listed as RFX): >64 µg/mL | MIC50 (Streptococcus spp.): 0.12 µg/mL (≈ 0.153 µM) | MIC90 (Streptococcus spp.): 0.25 µg/mL (≈ 0.318 µM) | MIC50 (Streptococcus spp.; [4]): 0.12 µg/mL (≈ 0.153 µM) | MIC90 (Streptococcus spp.; [4]): 0.25 µg/mL (≈ 0.318 µM) | MIC range (Streptococcus spp.; [4]): 0.015 to 0.3 µg/mL | Mode (Streptococcus spp.; [4]): 0.12 µg/mL | time-kill kinetics outcome (bactericidal = ≥3 log reduction in CFU per mL) (B. vulgatus ATCC 8482): bactericidal against this organism at 8×MIC at 6 hr; and at 2 and 4×MIC at 6, 24 and 48 hr

piperacillin/tazobactam [piperacillin-tazobactam]
Cumulative percentage of isolates inhibited at MIC ([1]; MIC 1 μg/mL): 10.0% | Number of test isolates at MIC ([1]; MIC 1 μg/mL): 4 | Cumulative percentage of isolates inhibited at MIC ([1]; MIC 2 μg/mL): 32.0% | Number of test isolates at MIC ([1]; MIC 2 μg/mL): 11 | Cumulative percentage of isolates inhibited at MIC ([1]; MIC 4 μg/mL): 70.0% | Number of test isolates at MIC ([1]; MIC 4 μg/mL): 19 | Cumulative percentage of isolates inhibited at MIC ([1]; MIC 8 μg/mL): 90.0% | Number of test isolates at MIC ([1]; MIC 8 μg/mL): 10 | Cumulative percentage of isolates inhibited at MIC ([1]; MIC 16 μg/mL): 98.0% | Number of test isolates at MIC ([1]; MIC 16 μg/mL): 4 | Cumulative percentage of isolates inhibited at MIC ([1]; MIC >64 μg/mL): 100.0% | Number of test isolates at MIC ([1]; MIC >64 μg/mL): 1 | Cumulative percentage of isolates inhibited at MIC ([1]; MIC […]): 2.0% | Number of test isolates at MIC ([1]; MIC […]): 1 | Cumulative percentage of isolates inhibited at MIC [2, 5]: 6.0% | Number of test isolates at MIC [2, 5]: 3 | Cumulative percentage of isolates inhibited at MIC [2, 6]: 24.0% | Number of test isolates at MIC [2, 6]: 9 | Cumulative percentage of isolates inhibited at MIC [2, 7]: 42.0% | Number of test isolates at MIC [2, 7]: 9 | Cumulative percentage of isolates inhibited at MIC [2, 8]: 46.0% | Number of test isolates at MIC [2, 8]: 2 | Cumulative percentage of isolates inhibited at MIC [2, 9]: 52.0% | Number of test isolates at MIC [2, 9]: 3 | Cumulative percentage of isolates inhibited at MIC [2, 10]: 54.0% | Number of test isolates at MIC [2, 10]: 1 | Cumulative percentage of isolates inhibited at MIC [2, 3]: 66.0% | Number of test isolates at MIC [2, 3]: 6 | Cumulative percentage of isolates inhibited at MIC [2, 11]: 92.0% | Number of test isolates at MIC [2, 11]: 13 | Cumulative percentage of isolates inhibited at MIC [2, 12]: 100.0% | Number of test isolates at MIC [2, 12]: 4 | % I (Klebsiella spp.): 2% | % R (Klebsiella spp.): 24% | % S (Klebsiella spp.): 74% | MIC50 (Klebsiella spp.): 4 µg/mL | MIC90 (Klebsiella spp.): >128 µg/mL | Mode (Klebsiella spp.): 2 µg/mL | Cumulative percentage of isolates at MIC (Klebsiella spp.; 0.5 μg/mL): 4.0% | Number of test isolates at MIC (Klebsiella spp.; 0.5 μg/mL): 2. | Cumulative percentage of isolates at MIC (Klebsiella spp.; 1 μg/mL): 14.0% | Number of test isolates at MIC (Klebsiella spp.; 1 μg/mL): 5 | Cumulative percentage of isolates at MIC (Klebsiella spp.; 2 μg/mL): 48.0% | Number of test isolates at MIC (Klebsiella spp.; 2 μg/mL): 17 | Cumulative percentage of isolates at MIC (Klebsiella spp.; 4 μg/mL): 58.0% | Number of test isolates at MIC (Klebsiella spp.; 4 μg/mL): 5 | Cumulative percentage of isolates at MIC (Klebsiella spp.; 8 μg/mL): 68.0% | Number of test isolates at MIC (Klebsiella spp.; 8 μg/mL): 5 | Cumulative percentage of isolates at MIC (Klebsiella spp.; 16 μg/mL): 74.0% | Number of test isolates at MIC (Klebsiella spp.; 16 μg/mL): 3 | Cumulative percentage of isolates at MIC (Klebsiella spp.; 64 μg/mL): 76.0% | Number of test isolates at MIC (Klebsiella spp.; 64 μg/mL): 1 | Cumulative percentage of isolates at MIC (Klebsiella spp.; 128 μg/mL): 78.0% | Number of test isolates at MIC (Klebsiella spp.; 128 μg/mL): 1 | Cumulative percentage of isolates at MIC (Klebsiella spp.; >128 μg/mL): 100.0% | Number of test isolates at MIC (Klebsiella spp.; >128 μg/mL): 11 | MIC50 (Streptococcus spp.; [4]): 0.12 µg/mL | MIC90 (Streptococcus spp.; [4]): 1 µg/mL | MIC range (Streptococcus spp.; [4]): 0.015 to 4 µg/mL | Mode (Streptococcus spp.; [4]): 0.25 µg/mL | activity against SIBO organisms (SIBO Bacteria): active against SIBO organisms
